What all share (assay type): binding
Experiment [1] addresses T1, STAT5a Trp566Arg (Homo sapiens, UniProt P42229, W566R).
T1 construct: made in house
T1 sequence (P42229 1-794 W566R): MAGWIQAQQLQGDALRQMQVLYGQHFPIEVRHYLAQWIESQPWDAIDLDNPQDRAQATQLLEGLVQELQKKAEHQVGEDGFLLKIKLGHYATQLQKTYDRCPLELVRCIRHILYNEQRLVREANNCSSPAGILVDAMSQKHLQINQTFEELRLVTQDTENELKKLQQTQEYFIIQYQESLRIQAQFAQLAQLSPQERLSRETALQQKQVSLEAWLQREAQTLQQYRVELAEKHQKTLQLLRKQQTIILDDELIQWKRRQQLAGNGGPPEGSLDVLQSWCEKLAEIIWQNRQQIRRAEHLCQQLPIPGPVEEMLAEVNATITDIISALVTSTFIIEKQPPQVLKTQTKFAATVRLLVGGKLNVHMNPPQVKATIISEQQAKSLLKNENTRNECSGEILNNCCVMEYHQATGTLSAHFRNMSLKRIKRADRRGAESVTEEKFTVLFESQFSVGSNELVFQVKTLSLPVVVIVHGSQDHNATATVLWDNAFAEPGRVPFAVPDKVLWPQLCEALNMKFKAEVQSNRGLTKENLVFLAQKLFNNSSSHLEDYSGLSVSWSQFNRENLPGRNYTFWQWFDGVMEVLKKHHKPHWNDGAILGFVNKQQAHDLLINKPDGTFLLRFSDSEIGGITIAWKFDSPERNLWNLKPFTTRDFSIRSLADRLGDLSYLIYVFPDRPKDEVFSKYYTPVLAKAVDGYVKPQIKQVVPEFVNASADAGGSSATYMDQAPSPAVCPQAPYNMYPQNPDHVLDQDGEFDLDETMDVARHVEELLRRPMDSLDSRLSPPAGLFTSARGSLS
Nature of the experiment: Fluorescence polarization assay, point mutant STAT5a Trp566Arg. On the technique in general: Polarisation of emitted light reports the rotation of a fluorescent probe.

In experiment [2] the target is T2, STAT5b Arg566Trp (Homo sapiens, UniProt P51692, R566W).
T2 construct: made in house
T2 sequence (P51692 1-787 R566W): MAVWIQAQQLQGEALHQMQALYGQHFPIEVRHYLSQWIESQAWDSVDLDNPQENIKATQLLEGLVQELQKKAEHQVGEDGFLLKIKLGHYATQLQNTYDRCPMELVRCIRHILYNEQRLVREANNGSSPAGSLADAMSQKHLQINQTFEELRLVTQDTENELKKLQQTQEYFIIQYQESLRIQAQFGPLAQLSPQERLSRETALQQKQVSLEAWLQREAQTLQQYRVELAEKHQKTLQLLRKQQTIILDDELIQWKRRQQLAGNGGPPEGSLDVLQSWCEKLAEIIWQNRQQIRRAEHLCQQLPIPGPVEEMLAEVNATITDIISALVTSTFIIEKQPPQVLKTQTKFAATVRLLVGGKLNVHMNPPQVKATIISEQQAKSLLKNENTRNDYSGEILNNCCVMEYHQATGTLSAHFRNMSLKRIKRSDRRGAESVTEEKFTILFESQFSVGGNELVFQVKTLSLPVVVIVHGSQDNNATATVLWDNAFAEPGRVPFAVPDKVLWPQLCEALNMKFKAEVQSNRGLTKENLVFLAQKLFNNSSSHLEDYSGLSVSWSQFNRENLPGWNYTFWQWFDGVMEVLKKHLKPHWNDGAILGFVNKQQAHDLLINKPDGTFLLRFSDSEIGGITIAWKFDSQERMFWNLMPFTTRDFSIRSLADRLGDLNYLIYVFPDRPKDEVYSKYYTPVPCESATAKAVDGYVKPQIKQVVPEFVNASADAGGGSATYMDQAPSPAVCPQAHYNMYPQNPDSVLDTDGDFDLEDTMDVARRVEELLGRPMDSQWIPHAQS
Kind of experiment: Fluorescence polarization assay, point mutant STAT5b Arg566Trp. The settings on record: FP assay.

Experiment [3] has as its target T3, STAT5b Gln636Pro/Met639Asn/Phe640Leu/Met644Lys/Asn664Ser/Tyr679Phe (STAT5b‐6M) (Homo sapiens, UniProt P51692, F640L/M639N/M644K/N664S/Q636P/Y679F).
T3 construct: made in house
T3 sequence (P51692 1-787 Q636P/M639N/F640L/M644K/N664S/Y679F): T2 sequence (P51692 1-787 R566W) with W566R, Q636P, M639N, F640L, M644K, N664S, Y679F
Nature of the experiment: Fluorescence polarization assay, mutant STAT5b-6M.

Where [4] appears, read: FP assay, double-purified protein.

Each structure is given as a SMILES string. Positions count from the first letter of the chain named.

`COc1cc(-c2cc(OP(=O)(O)O)cc(-c3cc(OC)c(OC)c(OC)c3)c2)cc(OC)c1OC` [Compound 20] yielded an IC50 in experiment [1] (setting [4]) of 155 ± 15 µM. Moreover, in experiment [1] (setting [4]), affinity was put at a Ki of 74 ± 7 µM. The “reduction of activity against STAT5a Trp566Arg as compared to wild-type STAT5a” value in experiment [1] (FP assays) is 7 fold. Besides, the inhibition at 200 µM came to 43 ± 7% in experiment [2] and 46 ± 8% in experiment [3] (FP assay, 200 µM). In addition, the “activity against STAT5b-6M lower than activity against wild-type STAT5a” value in experiment [3] (FP assays) is reported as “approximately 10 fold”.

Usually IC50 stands for the concentration needed to halve the response being measured. A low value points to higher potency. For orientation: Ki means a dissociation constant, usually derived from enzyme kinetics or from competition with a known ligand. Read a high Ki as lower affinity. Usually inhibition stands for the relative decrease from the control value, in per cent. A higher inhibition goes with a strong effect.

These data come from article PMC6973011, “Stafia‐1: a STAT5a‐Selective Inhibitor Developed via Docking‐Based Screening of in Silico O‐Phosphorylated Fragments” (Chemistry (Weinheim an Der Bergstrasse, Germany), 2019).
